The conditions of data set [1]: cited from earlier work.
Data set [2] deals with T1, human HERG K+ channel (Homo sapiens, UniProt Q12809).
Procedure: (§1) Adherent HEK293 cells expressing human HERG, were grown in MEM Earles medium (Life Technologies) supplemented with 10% foetal calf serum (PAA Laboratories), 2 mM L-glutamine (Sigma), 1 mM sodium pyruvate (Sigma), 0.4 mg/ml G418 (Life Technologies) and an addition of 1× non-essential amino acids (Life Technologies). The cells were grown at 37° C. in a humidified atmosphere with 5% CO2 in T225 cm^3 flasks.
(§2) All cells were pelleted, washed twice with PBS and snap-frozen on dry ice prior to storage at −80° C. until required.
(§3) Cell membrane fractions were prepared from frozen aliquots of cells. All procedures were carried out at 4° C. unless otherwise stated. Frozen aliquots of cells were thawed at room temperature and resuspended in homogenisation buffer (50 mM Tris base, 10 mM KCl, 1-1.2 mM MgCl2, pH 7.4). The cells were then disrupted by homogenisation in an Omni LabTek homogeniser at 20,000 rpm for 30 seconds. The homogenate was centrifuged for 20 minutes at 48,000×g (4° C., Sorvall RC5B centrifuge) and the supernatant removed. […] Protein content was determined using a Coomassie Blue based protein assay kit. […]
In each experiment, triplicate assays were routinely performed and the data were averaged. Specific binding was analysed by nonliiear regression fit using GraphPad Prism software (GraphPad, San Diego). […]
In data set [3] the target is T1, human HERG K+ channel. The source holds these as a separate data set.
Procedure: as §1, §2, §3
The scintillation proximity assay (SPA) was carried out under identical buffer conditions to those used in the filtration assay. […] Beads were allowed to settle for a minimum of 30 minutes before plates were counted for retained radioactivity on a TopCount NTX scintillation counter.

Each structure is given as a SMILES string.

T1 sequence (Q12809 whole entry): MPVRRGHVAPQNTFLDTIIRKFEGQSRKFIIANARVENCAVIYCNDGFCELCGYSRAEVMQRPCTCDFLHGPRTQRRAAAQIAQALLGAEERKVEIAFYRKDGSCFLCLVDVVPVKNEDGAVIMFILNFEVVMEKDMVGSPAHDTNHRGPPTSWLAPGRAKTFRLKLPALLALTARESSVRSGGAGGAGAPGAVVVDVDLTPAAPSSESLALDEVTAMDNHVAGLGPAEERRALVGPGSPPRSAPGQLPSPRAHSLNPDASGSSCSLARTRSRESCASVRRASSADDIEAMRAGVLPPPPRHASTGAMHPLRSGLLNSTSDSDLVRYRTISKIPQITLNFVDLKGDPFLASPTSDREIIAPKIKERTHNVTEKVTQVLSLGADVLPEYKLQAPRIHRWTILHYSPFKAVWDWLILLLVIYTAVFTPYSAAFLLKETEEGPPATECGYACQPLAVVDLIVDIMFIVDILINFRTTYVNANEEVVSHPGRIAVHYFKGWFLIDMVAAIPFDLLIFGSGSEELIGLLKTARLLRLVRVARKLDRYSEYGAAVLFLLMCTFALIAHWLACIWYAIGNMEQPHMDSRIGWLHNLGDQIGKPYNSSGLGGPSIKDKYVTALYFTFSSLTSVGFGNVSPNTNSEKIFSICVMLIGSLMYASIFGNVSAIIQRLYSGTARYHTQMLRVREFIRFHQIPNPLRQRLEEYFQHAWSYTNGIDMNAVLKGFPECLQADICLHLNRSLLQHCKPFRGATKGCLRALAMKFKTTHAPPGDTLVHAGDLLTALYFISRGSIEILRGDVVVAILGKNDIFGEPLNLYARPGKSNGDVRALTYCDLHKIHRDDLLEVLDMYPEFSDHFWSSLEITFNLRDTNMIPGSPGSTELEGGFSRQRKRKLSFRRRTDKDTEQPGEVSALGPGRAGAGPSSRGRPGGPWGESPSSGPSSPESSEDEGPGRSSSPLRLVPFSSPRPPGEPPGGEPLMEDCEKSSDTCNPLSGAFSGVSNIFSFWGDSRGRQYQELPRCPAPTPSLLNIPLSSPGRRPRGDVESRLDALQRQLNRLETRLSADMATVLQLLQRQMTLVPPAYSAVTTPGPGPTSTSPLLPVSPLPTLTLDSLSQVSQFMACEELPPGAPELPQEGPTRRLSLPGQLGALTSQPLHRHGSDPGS

As for `COc1cc(N)c(Cl)cc1C(=O)NC1CCN(CCCOc2ccc(F)cc2)CC1OC` (stereo not shown) [Cisapride], the “effect on QT interval of the electrocardiogram in man” value in data set [1] is listed as “prolong the QT interval”.
Consider `CC(C)NC[C@@H](O)c1ccc(NS(C)(=O)=O)cc1` [D-Sotalol], for which the “Filter binding pKi” value on human HERG K+ channel [2] was below 5. For the same molecule, at human HERG K+ channel [3], the “SPA 96 pKi” value is on record as below 5 and the “SPA 384 pKi” value is recorded as below 5.

The values above are taken from patent US20050214870A1, “Assay” (priority 2001, published 2005).
